Where two headings read alike, the source gives them in different places.
What was measured:
[1] = tested on: previously untreated locally recurrent or metastatic HER2-negative breast cancer; assay: RIBBON1 randomized phase III trial, efficacy (PFS, ORR, OS) of bevacizumab or placebo with chemotherapy; type: in vivo, human; conditions: for % of deaths: overall survival analysis; for ORR (%) / ORR, number of patients with objective response: patients with measurable disease; for median duration of objective response: among responders; for PFS compared to chemotherapies alone (in words): bevacizumab added to capecitabine, taxane or anthracycline-based chemotherapy, 1st-line
Text: (§1) The primary objective of the study was to determine the clinical benefit of the addition of bevacizumab to standard chemotherapy regimes for previously untreated metastatic breast cancer, as measured by PFS based on investigator tumor assessment. See, e.g., O'Shaughnessy and Brufsky, (2008), Clinical Breast Cancer, 8(4): 370-373. The trial comprised two study groups that evaluated AVASTIN® with different types of chemotherapies in women who had not previously received chemotherapy for their advanced HER2-negative breast cancer. In the first study group, women received either AVASTIN or placebo in combination with taxane or anthracycline-based chemotherapies. In the second study group, women received either AVASTIN or placebo in combination with capecitabine chemotherapy. The analysis of this example was based on information from 1237 patients. These trials evaluated the efficacy of bevacizumab (AVASTIN®) as therapy for patients previously untreated metastic breast cancer.
(§2) In the RIBBON1 trial, the following treatment protocol was used:
(§3) Arm A: bevacizumab 15 mg/kg IV on day 1 of each 21-day cycle and either cohort 1, cohort 2 or cohort 3;
(§4) Arm B: placebo IV on day 1 of each 21-day cycle and either cohort 1, cohort 2 or cohort 3.
(§5) Cohort 1: Either of the following taxanes administered every 3 weeks
Paclitaxel protein-bound particles (Abraxane®) 260 mg/m^2 IV
(§6) Cohort 2: Any of the following anthracycline-based combination chemotherapies, for subjects previously untreated with anthracyclines, every 3 weeks:
FEC: 5-fluorouracil 500 mg/m^2 IV, epirubicin 90-100 mg/m^2 IV and cyclophosphamide 500 mg/m^2 IV on Day 1
FAC: 5-fluorouracil 500 mg/m^2 IV, doxorubicin 50 mg/m^2 IV and cyclophosphamide 500 mg/m^2 IV on Day 1
AC: Doxorubicin 50-60 mg/m^2 IV and cyclophosphamide 500-600 mg/m^2 IV on Day 1
EC: Epirubicin 90-100 mg/m^2 IV and cyclophosphamide 500-600 mg/m^2 IV on Day 1
(§7) Cohort 3: Capecitabine 1000 mg/m^2 oral twice daily on Days 1-14 of each 3-week cycle.
All subjects had histologically or cytologically confirmed adenocarcinoma of the breast, subjects may have had either measureable (per the Response Evaluation Criteria in Solid Tumors (RECIST)) or non-measureable locally recurrent or metastatic disease. The locally recurrent disease was not amenable to resection with curative intent.
The trial was conducted worldwide (at least 22 countries) and accrued 1237 subjects/patients (Taxane (T): 307; Anthracycline (Anthra): 315; and Capecitabine (Cap): 615).
The primary endpoint of the study was progression free survival (PFS), defined as the time from randomization to disease progression or to death, based on investigator assessment. Kaplan-Meier methodology can be used to estimate median PFS for each treatment arm. In certain embodiments, the hazard ratio for PFS will be estimated using a stratified Cox regression model with the same stratification factors used in the stratified log-rank test. Analyses of PFS in each cohort is performed at the two-sided α=0.05 level. Time-to-event data are compared between treatment arms using a stratified log-rank test. The Kaplan-Meier method is used to estimate duration of time-to-event data. The 95% confidence intervals for median time-to-event are computed using the Brookmeyer-Crowley method. The HR for time-to-event data are estimated using a stratified Cox regression model.
(§8) The secondary endpoints included objective response rate (ORR), one-year survival rate, overall survival (OS), and PFS based on IRC assessment and safety. OS is defined as the time from randomization until death from any cause. ORR is defined as the percentage of patients who achieved a complete or partial response confirmed ≥28 days after initial documentation of response. One-year survival rate is assessed between treatment arms using the normal approximation method. ORR in patients with measurable disease at baseline is compared using the stratified Mantel-Haenszel χ2 test.

[2] = tested on: previously untreated locally recurrent or metastatic HER2-negative breast cancer
Text: as §1, §2, §3, §4, §5, §6, §7
as §8, with “test. Randomization stratification factors are included in all stratified analyses.” for “test.”

[3] = tested on: metastatic breast cancer; conditions: docetaxel + bevacizumab (7.5 and 15 mg/kg q3w) vs docetaxel alone; cited from earlier work
[4] = tested on: previously treated metastatic breast cancer; conditions: capecitabine + bevacizumab vs capecitabine alone; cited from earlier work
[5] = tested on: metastatic breast cancer; conditions: weekly paclitaxel + bevacizumab vs paclitaxel alone; cited from earlier work
[6] = Cap cohort, BV arm = bevacizumab + capecitabine, PL arm = placebo + capecitabine, investigator assessment
[7] = Cap cohort, BV or placebo + capecitabine
[8] = Cap cohort, second PFS figure of b186, assessor not stated (FIG. 2 shows INV and IRC)
[9] = T/Anthra cohort, BV or placebo + taxane/anthracycline

## CCCCCOC(=O)Nc1nc(=O)n([C@@H]2O[C@H](C)[C@@H](O)[C@H]2O)cc1F [Cap, capecitabine, reference compound]
[1]; Cap cohort
  1-yr survival rate (%): 74%
  % of deaths: 35%
[1]; [6]
  PFS Median (months): 5.7 months
[1]; [7]
  Median OS (months): 21.2 months
  ORR (%): (23.6%)
  ORR, number of patients with objective response: 38
[1]; [8]
  PFS: 6.2 months
[1]; Capecitabine cohort
  median duration of objective response: 7.2 months
[2]; Cape cohort
  AEs leading to death (excludes AEs related to metastatic breast cancer progression): 2.5%
[2]; female, human, in vivo
  AEs leading to study drug (PL or BV) discontinuation: 11.9%
  SAEs: 18.9%
  Selected AEs (previously shown to be associated with bevacizumab): 9.0%

## BV: recombinant humanized anti-VEGF monoclonal antibody, human IgG1 framework with CDRs from murine antibody A.4.6.1
[1]; Anthra subgroup, BV or placebo + anthracycline-based chemotherapy
  mPFS, mo (median PFS): 9.2 mo
[1]; Anthra subgroup, BV vs PL
  PFS HR (95% CI): 0.55 (0.40-0.74)
[1]; [6]
  PFS Median (months): 8.6 months
[1]; [7]
  Median OS (months): 29.0 months
  ORR (%): (35.4%)
[1]; Cap cohort, bevacizumab 15 mg/kg q3w + capecitabine vs placebo + capecitabine, investigator assessment
  PFS HR (95% CI): 0.688
[1]; Cap cohort, bevacizumab + capecitabine vs placebo + capecitabine
  OS (HR, 95% CI): 0.85 (0.63-1.14)
[1]; Cap cohort, bevacizumab + capecitabine vs placebo + capecitabine, listed as B
  OS (HR, 95% CI): 0.847
[1]; Cap cohort
  % of deaths: 30%
[1]; [8]
  PFS: 9.7 months
[1]; Capecitabine cohort
  median duration of objective response: 9.2 months
[1]; T/Anthra cohort, BV arm = bevacizumab + taxane/anthracycline, PL arm = placebo + taxane/anthracycline, investigator assessment
  PFS Median (months): 9.2 months
[1]; [9]
  Median OS (months): 25.2 months
  ORR (%): (51.3%)
  ORR, number of patients with objective response: 177
[1]; T/Anthra cohort, bevacizumab 15 mg/kg q3w + taxane/anthracycline vs placebo + taxane/anthracycline, investigator assessment
  PFS HR (95% CI): 0.644
[1]; T/Anthra cohort, bevacizumab + taxane/anthracycline vs placebo + taxane/anthracycline
  OS (HR, 95% CI): 1.03 (0.77-1.38)
[1]; T/Anthra cohort, bevacizumab + taxane/anthracycline vs placebo + taxane/anthracycline, listed as B
  OS (HR, 95% CI): 1.032
[1]; T/Anthra cohort
  % of deaths: 34%
[1]; T/Anthra cohort, second PFS figure of b186, assessor not stated (FIG. 3 shows INV and IRC)
  PFS: 10.7 months
[1]; Taxane subgroup, BV or placebo + docetaxel or Abraxane
  mPFS, mo (median PFS): 9.2 mo
[1]; Taxane subgroup, BV vs PL
  PFS HR (95% CI): 0.75 (0.56-1.01)
[1]
  PFS compared to chemotherapies alone (in words): statistically-significant improvement in PFS
[1]; listed as AVASTIN®
  PFS compared to chemotherapies alone (in words): increased the time women lived without their disease advancing
[1]; taxane/anthracycline cohort
  median duration of objective response: 8.3 months
[2]; Anthra cohort
  AEs leading to study drug (PL or BV) discontinuation: 14.3%
  SAEs: 22.4%
[2]; Cape cohort
  AEs leading to study drug (PL or BV) discontinuation: 11.9%
  SAEs: 24.3%
[2]; Taxane cohort
  AEs leading to death (excludes AEs related to metastatic breast cancer progression): 3.4%
  AEs leading to study drug (PL or BV) discontinuation: 24.1%
  SAEs: 41.4%
[2]; bevacizumab + chemotherapy, all cohorts
  Safety: consistent with results of prior bevacizumab trials
[3]
  progression-free survival (PFS): longer
[4]
  PFS (primary objective): failed to meet its primary objective of improving PFS
  overall response rate (ORR): higher
[5]
  progression-free survival (PFS): significantly longer
